US8686143B2, “Compounds useful as inhibitors of Janus kinases” (Vertex Pharmaceuticals Incorporated, priority 2007, dated 2014)

Molecular target: T1, JAK3 (Homo sapiens, UniProt P52333)
T1 sequence (P52333 1-1124): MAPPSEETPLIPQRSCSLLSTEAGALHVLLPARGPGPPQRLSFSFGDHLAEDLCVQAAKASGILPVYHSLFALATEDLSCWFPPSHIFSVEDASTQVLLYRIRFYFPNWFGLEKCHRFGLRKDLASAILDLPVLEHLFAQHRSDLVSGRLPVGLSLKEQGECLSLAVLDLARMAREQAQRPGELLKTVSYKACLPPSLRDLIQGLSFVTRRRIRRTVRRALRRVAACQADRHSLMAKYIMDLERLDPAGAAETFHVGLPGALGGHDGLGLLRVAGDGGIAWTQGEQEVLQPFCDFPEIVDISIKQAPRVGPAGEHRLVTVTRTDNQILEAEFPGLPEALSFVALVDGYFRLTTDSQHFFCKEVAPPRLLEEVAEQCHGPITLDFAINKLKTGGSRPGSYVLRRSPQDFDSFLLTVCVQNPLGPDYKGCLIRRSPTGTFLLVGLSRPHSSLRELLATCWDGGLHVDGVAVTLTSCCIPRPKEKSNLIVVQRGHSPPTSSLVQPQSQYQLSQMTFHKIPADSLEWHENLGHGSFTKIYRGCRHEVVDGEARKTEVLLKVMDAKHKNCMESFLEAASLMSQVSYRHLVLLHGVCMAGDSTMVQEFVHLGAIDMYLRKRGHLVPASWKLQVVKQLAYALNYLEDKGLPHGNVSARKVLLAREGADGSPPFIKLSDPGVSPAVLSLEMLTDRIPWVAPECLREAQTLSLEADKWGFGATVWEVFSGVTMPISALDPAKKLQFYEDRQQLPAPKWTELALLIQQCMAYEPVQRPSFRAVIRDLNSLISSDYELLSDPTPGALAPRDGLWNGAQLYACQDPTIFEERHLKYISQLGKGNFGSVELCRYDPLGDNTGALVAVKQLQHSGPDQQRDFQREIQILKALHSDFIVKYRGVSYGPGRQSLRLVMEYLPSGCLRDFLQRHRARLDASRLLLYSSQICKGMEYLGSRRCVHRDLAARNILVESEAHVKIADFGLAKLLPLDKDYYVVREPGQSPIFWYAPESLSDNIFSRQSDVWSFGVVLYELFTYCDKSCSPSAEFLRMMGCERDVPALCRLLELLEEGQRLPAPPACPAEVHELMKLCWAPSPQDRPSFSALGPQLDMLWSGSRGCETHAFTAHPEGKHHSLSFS
Assay: JAK3 Inhibition Assay (33P incorporation into poly(Glu)4Tyr)
Type: biochemical
Details: for Ki: 1 nM JAK3, 5 μM ATP, 1 μM poly(Glu)4Tyr, 25° C.
Protocol: Compounds were screened for their ability to inhibit JAK3 using the assay shown below. Reactions were carried out in a kinase buffer containing 100 mM HEPES (pH 7.4), 1 mM DTT, 10 mM MgCl2, 25 mM NaCl, and 0.01% BSA. Substrate concentrations in the assay were 5 μM ATP (200 uCi/μmole ATP) and 1 μM poly(Glu)4Tyr. Reactions were carried out at 25° C. and 1 nM JAK3.
To each well of a 96 well polycarbonate plate was added 1.5 μl of a candidate JAK3 inhibitor along with 50 μlof kinase buffer containing 2 μM poly(Glu)4Tyr and 10 μM ATP. This was then mixed and 50 μl of kinase buffer containing 2 nM JAK3 enzyme was added to start the reaction. After 20 minutes at room temperature (25° C.), the reaction was stopped with 50 μl of 20% trichloroacetic acid (TCA) that also contained 0.4 mM ATP. The entire contents of each well were then transferred to a 96 well glass fiber filter plate using a TomTek Cell Harvester. After washing, 60 μl of scintillation fluid was added and ^33P incorporation detected on a Perkin Elmer TopCount.

inhibition of JAK3 at concentrations of 50 μM | Ki [µM] | Structure (SMILES) | also measured
did not inhibit |  | C[C@H](Nc1nc(-c2ccc(F)nc2)ncc1F)C(=O)NCC(F)(F)F [Compound 1] | 
 | 10 to 50 | C[C@H](Nc1nc(-c2ccnc(Cl)c2)ncc1F)C(=O)NCC(F)(F)F [Compound 2] | 
did not inhibit |  | C[C@H](Nc1nc(-c2ccncc2)ncc1F)C(=O)NCC(F)(F)F [Compound 3] | 
 | 1 to 10 | C[C@H](Nc1nc(-c2cccnc2)ncc1F)C(=O)NCC(F)(F)F [Compound 4] | 
did not inhibit |  | C[C@H](Nc1nc(-c2cccnc2Cl)ncc1F)C(=O)NCC(F)(F)F [Compound 5] | 
 | 10 to 50 | C[C@H](Nc1nc(-c2ccc(N)nc2)ncc1F)C(=O)NCC(F)(F)F [Compound 6] | 
did not inhibit |  | C[C@H](Nc1nc(-c2c[nH]c(C(=O)O)c2)ncc1F)C(=O)NCC(F)(F)F [Compound 7] | 
 | 10 to 50 | O=C(CNc1nc(-c2cccnc2F)ncc1F)NCC(F)(F)F [Compound 8] | 
did not inhibit |  | O=C(CNc1nc(-c2ccc(F)nc2)ncc1F)NCC(F)(F)F [Compound 9] | 
did not inhibit |  | COc1ccc(-c2ncc(F)c(NCC(=O)NCC(F)(F)F)n2)cn1 [Compound 10] | 
 | 1 to 10 | O=C(CNc1nc(-c2cccnc2)ncc1F)NCC(F)(F)F [Compound 11] | 
did not inhibit |  | O=C(CCNc1nc(-c2cccnc2F)ncc1F)NCC(F)(F)F [Compound 12] | 
did not inhibit |  | O=C(CCNc1nc(-c2ccc(F)nc2)ncc1F)NCC(F)(F)F [Compound 13] | 
did not inhibit |  | COc1ccc(-c2ncc(F)c(NCCC(=O)NCC(F)(F)F)n2)cn1 [Compound 14] | 
 | 10 to 50 | O=C(CCNc1nc(-c2cccnc2)ncc1F)NCC(F)(F)F [Compound 15] | 
did not inhibit |  | O=C(CCNc1nc(-c2cn[nH]c2)ncc1F)NCC(F)(F)F [Compound 16] | 
did not inhibit |  | C[C@@H](Nc1nc(-c2cccnc2F)ncc1F)C(=O)NCC(F)(F)F [Compound 17] | 
did not inhibit |  | COc1ccc(-c2ncc(F)c(N[C@H](C)C(=O)NCC(F)(F)F)n2)cn1 [Compound 18] | 
did not inhibit |  | C[C@@H](Nc1nc(-c2ccc(F)nc2)ncc1F)C(=O)NCC(F)(F)F [Compound 19] | 
 | 10 to 50 | C[C@@H](Nc1nc(-c2cccnc2)ncc1F)C(=O)NCC(F)(F)F [Compound 20] | 
did not inhibit |  | O=C(NCC(F)(F)F)[C@H]1CCCN1c1nc(-c2cccnc2F)ncc1F [Compound 21] | 
did not inhibit |  | O=C(NCC(F)(F)F)[C@H]1CCCN1c1nc(-c2ccc(F)nc2)ncc1F [Compound 22] | 
did not inhibit |  | O=C(NCC(F)(F)F)[C@H]1CCCN1c1nc(-c2cccnc2)ncc1F [Compound 23] | 
did not inhibit |  | O=C(NCC(F)(F)F)[C@@H]1CCCN1c1nc(-c2cccnc2F)ncc1F [Compound 24] | 
did not inhibit |  | O=C(NCC(F)(F)F)[C@@H]1CCCN1c1nc(-c2ccc(F)nc2)ncc1F [Compound 25] | 
 | 1 to 10 | O=C(NCC(F)(F)F)[C@@H]1CCCN1c1nc(-c2cccnc2)ncc1F [Compound 26] | 
 | 1 to 10 | C[C@H](Nc1nc(-c2cccnc2N)ncc1F)C(=O)NCC(F)(F)F [Compound 27] | 
 | 1 to 10 | CC(C)[C@H](Nc1ccnc(-c2cccnc2N)n1)C(=O)NCC(F)(F)F [Compound 28] | 

inhibition of JAK3 at concentrations of 50 μM | Ki [µM] | Structure (SMILES) | also measured
 | ≤ 1 | Nc1ncccc1-c1ncc(F)c(NCC(=O)NCC(F)(F)F)n1 [Compound 29] | 
 | 1 to 10 | Nc1ncccc1-c1ncc(F)c(NCCC(=O)NCC(F)(F)F)n1 [Compound 30] | 
 | 1 to 10 | CC(C)(Nc1ccnc(-c2cccnc2N)n1)C(=O)NCC(F)(F)F [Compound 31] | 
 | 1 to 10 | Nc1ncccc1-c1ncc(F)c(N2CC(C(=O)NCC(F)(F)F)C2)n1 [Compound 32] | 
 | ≤ 1 | C[C@H](Nc1cc(-n2nc(Nc3ccc(F)cc3)nc2N)ncn1)C(=O)NCC(F)(F)F [Compound 33] | 
 | ≤ 1 | CC[C@H](Nc1cc(-n2nc(Nc3ccc(F)cc3)nc2N)ncn1)C(=O)NCC(F)(F)F [Compound 34] | 
 | ≤ 1 | Nc1nc(Nc2ccc(F)cc2)nn1-c1cc(NCCC(=O)NCC(F)(F)F)ncn1 [Compound 35] | 
 | ≤ 1 | Nc1nc(Nc2ccc(F)cc2)nn1-c1cc(NCC(=O)NCC(F)(F)F)ncn1 [Compound 36] | 
 | ≤ 1 | Nc1nc(Nc2ccc(F)cc2)nn1-c1cc(N2CCC[C@@H]2C(=O)NCC(F)(F)F)ncn1 [Compound 37] | 
 | 1 to 10 | COc1ccc(Nc2nc(N)n(-c3nccc(NC(C)(C)C(=O)NCC(F)(F)F)n3)n2)cc1 [Compound 38] | 
 | 1 to 10 | COc1ccc(Nc2nc(N)n(-c3ncc(F)c(N4CCC[C@@H]4C(=O)NCC(F)(F)F)n3)n2)cc1 [Compound 39] | 
 |  | COc1ccc(Nc2nc(N)n(-c3ncc(F)c(N4CCC[C@@H]4C(=O)NCC(F)(F)F)n3)n2)c(C)c1 [Compound 40] | inhibition of JAK3 at concentrations of 5.0 μM: did not inhibit
 |  | Nc1nc(Nc2ccccc2Cl)nn1-c1ncc(F)c(N2CCC[C@@H]2C(=O)NCC(F)(F)F)n1 [Compound 41] | inhibition of JAK3 at concentrations of 5.0 μM: did not inhibit
 | ≤ 1 | COc1ccc(Nc2nc(N)n(-c3nccc(N[C@H](C(=O)NCC(F)(F)F)C(C)C)n3)n2)cc1 [Compound 42] | 
 | 1 to 10 | COc1ccc(Nc2nc(N)n(-c3ncc(F)c(N[C@@H](C(=O)NCC(F)(F)F)C(C)C)n3)n2)cc1 [Compound 43] | 
 | 1 to 10 | Nc1nc(Nc2ccc(F)cc2)nn1-c1ncc(F)c(N2CCC[C@@H]2C(=O)NCC(F)(F)F)n1 [Compound 44] | 
 | 1 to 10 | C[C@H](Nc1nc(-n2nc(Nc3ccc(F)cc3)nc2N)ncc1F)C(=O)NCC(F)(F)F [Compound 45] | 
 |  | Nc1nc(Nc2cccnc2)nn1-c1ncc(F)c(N2CCC[C@@H]2C(=O)NCC(F)(F)F)n1 [Compound 46] | inhibition of JAK3 at concentrations of 5.0 μM: did not inhibit
 |  | Nc1nc(NC2CCCCC2)nn1-c1ncc(F)c(N2CCC[C@@H]2C(=O)NCC(F)(F)F)n1 [Compound 47] | inhibition of JAK3 at concentrations of 5.0 μM: did not inhibit
 |  | Nc1nc(NCC2CCCCC2)nn1-c1ncc(F)c(N2CCC[C@@H]2C(=O)NCC(F)(F)F)n1 [Compound 48] | inhibition of JAK3 at concentrations of 5.0 μM: did not inhibit
 | 1 to 10 | Nc1nc(Nc2ccc([C@H]3CC[C@H](N4CCOCC4)CC3)cc2)nn1-c1ncc(F)c(N2CCC[C@@H]2C(=O)NCC(F)(F)F)n1 [Compound 49] | 
 | 1 to 10 | COc1ccc(Nc2nc(N)n(-c3ncc(F)c(NCCC(=O)NCC(F)(F)F)n3)n2)cc1 [Compound 50] | 
 | 1 to 10 | Nc1nc(Nc2ccccc2)nn1-c1ncc(F)c(N2CCC[C@@H]2C(=O)NCC(F)(F)F)n1 [Compound 51] | 
 |  | Nc1nc(NC2CC2)nn1-c1ncc(F)c(N2CCC[C@@H]2C(=O)NCC(F)(F)F)n1 [Compound 52] | inhibition of JAK3 at concentrations of 5.0 μM: did not inhibit
 |  | CC(C)Nc1nc(N)n(-c2ncc(F)c(N3CCC[C@@H]3C(=O)NCC(F)(F)F)n2)n1 [Compound 53] | inhibition of JAK3 at concentrations of 5.0 μM: did not inhibit
 |  | CCCNc1nc(N)n(-c2ncc(F)c(N3CCC[C@@H]3C(=O)NCC(F)(F)F)n2)n1 [Compound 54] | inhibition of JAK3 at concentrations of 5.0 μM: did not inhibit
 |  | Nc1nc(NCC2CCCO2)nn1-c1ncc(F)c(N2CCC[C@@H]2C(=O)NCC(F)(F)F)n1 (stereo partly shown) [Compound 55] | inhibition of JAK3 at concentrations of 5.0 μM: did not inhibit
